Earlier results on one compound are cited in patent publication EP1815850B1, “Controlled release formulation of divalproic acid and its derivatives” (TEVA PHARMACEUTICAL INDUSTRIES LTD., priority 2006, dated 2007).

For the data set the following is noted: in adults.

For the compound `CCCC(CCC)C(=O)O` [valproic acid, 2-Propylpentanoic acid], the elimination half-life entry was “six and seventeen”.
